# Where two headings read alike, the source gives them in different places.
# How the values were obtained:
# humans = details: cited from earlier work
# rhesus monkeys [1] = details: nonhuman primates, recent report; cited from earlier work
# opioid receptors = assay type: biochemical
# [2] = target: serotonin 5-HT2A receptor (Homo sapiens, UniProt P28223); details: cited from earlier work
# rhesus monkeys [3] = test: behavioral / discriminative stimulus effects, generalization to U69,593; assay type: in vivo; set-up: generalization to U69,593: dose or concentration left out as unconfirmed
# Method: In an effort to further understand the in vivo pharmacology of these derivatives, propionate 9 was evaluated for behavioral effects in nonhuman primates in a pilot study. […] Propionate 9 generalized to U69,593 in only one of two rhesus monkeys tested, up to the highest dose that could be administered ([…], s.c.).
# κ receptors = κ receptors (Homo sapiens, UniProt P41145); test: biochemical; assay type: binding
# μ receptors = μ receptors (Homo sapiens, UniProt P35372); test: opioid receptor binding affinity, [^125I]IOXY as radioligand (μ); details: for Ki: [^125I]IOXY radioligand
# δ receptors = δ receptors (Homo sapiens, UniProt P41143); test: biochemical; assay type: binding
# δ receptors, sequence (P41143 whole entry): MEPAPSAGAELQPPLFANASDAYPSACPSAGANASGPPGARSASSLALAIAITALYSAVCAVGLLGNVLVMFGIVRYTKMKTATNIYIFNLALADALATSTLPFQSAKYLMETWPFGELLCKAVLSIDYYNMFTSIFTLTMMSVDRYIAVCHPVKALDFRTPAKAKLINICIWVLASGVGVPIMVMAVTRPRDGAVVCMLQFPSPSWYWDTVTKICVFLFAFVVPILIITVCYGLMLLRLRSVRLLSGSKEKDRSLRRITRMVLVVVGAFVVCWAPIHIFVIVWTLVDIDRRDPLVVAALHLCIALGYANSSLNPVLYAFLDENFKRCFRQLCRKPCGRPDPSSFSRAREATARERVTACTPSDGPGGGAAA
# κ receptors, sequence (P41145 whole entry): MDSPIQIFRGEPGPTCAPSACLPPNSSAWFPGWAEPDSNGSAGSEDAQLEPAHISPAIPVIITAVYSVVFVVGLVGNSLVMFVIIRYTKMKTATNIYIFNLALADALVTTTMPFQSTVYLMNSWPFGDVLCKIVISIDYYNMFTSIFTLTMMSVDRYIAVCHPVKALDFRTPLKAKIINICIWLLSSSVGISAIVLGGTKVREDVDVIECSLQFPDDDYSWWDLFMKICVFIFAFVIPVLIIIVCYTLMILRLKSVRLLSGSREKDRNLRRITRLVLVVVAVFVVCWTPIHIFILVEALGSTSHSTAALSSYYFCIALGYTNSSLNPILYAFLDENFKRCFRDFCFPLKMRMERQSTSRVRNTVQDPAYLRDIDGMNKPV
# μ receptors, sequence (P35372 whole entry): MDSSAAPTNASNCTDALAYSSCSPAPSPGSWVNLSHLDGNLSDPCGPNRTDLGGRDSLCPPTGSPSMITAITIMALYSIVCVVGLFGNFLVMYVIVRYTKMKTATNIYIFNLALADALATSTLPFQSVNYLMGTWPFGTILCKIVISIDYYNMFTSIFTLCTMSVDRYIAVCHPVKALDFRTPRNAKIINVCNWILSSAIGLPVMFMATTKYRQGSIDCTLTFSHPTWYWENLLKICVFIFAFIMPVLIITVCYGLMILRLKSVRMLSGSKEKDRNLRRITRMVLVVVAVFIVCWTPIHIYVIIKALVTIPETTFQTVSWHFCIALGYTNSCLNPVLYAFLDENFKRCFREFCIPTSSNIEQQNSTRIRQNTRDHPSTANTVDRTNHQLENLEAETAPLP
# serotonin 5-HT2A receptor, sequence (P28223 whole entry): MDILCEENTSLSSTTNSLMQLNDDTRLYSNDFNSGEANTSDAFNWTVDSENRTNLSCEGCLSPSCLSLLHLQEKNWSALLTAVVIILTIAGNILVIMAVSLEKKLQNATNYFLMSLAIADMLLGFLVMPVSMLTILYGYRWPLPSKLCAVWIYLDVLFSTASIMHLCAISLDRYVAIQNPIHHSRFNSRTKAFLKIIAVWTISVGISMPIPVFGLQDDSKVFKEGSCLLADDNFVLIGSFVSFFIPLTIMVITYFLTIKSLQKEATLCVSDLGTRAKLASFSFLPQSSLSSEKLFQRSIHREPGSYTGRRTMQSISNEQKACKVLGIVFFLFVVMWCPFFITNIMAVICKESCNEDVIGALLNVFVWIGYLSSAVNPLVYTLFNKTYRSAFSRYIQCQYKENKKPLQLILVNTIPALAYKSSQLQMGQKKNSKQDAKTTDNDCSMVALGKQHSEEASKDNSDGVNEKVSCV
compound,measurement,setting,value
COC(=O)[C@@H]1C[C@H](OC(C)=O)C(=O)[C@H]2[C@@]1(C)CC[C@H]1C(=O)O[C@H]([C@]3(O)[C@H](OC)O[C@H](OC)[C@H]3O)C[C@]21C,melting point,,272 to 274 °C
COC(=O)[C@@H]1C[C@H](OC(C)=O)C(=O)[C@H]2[C@@]1(C)CC[C@H]1C(=O)O[C@H]([C@]3(O)[C@@H](OC)O[C@@H](OC)[C@H]3O)C[C@]21C,melting point,,151 to 153 °C
"COC(=O)[C@@H]1C[C@H](OC(C)=O)C(=O)[C@H]2[C@@]1(C)CC[C@H]1C(=O)O[C@H](c3ccoc3)C[C@]21C [Compound 1, Salvinorin A]",smoked dose producing profound hallucinations,humans,200 to 500 µg
same,discriminative stimulus effect,rhesus monkeys [1],"discriminative stimulus effect similar to the high efficacy κ agonist U69,593"
same,functional activity,opioid receptors; [^35S]GTPγS assay,agonists
same,activity at the serotonin 5-HT2A receptor,[2],no activity
"CCC(=O)O[C@H]1C[C@@H](C(=O)OC)[C@]2(C)CC[C@H]3C(=O)O[C@H](c4ccoc4)C[C@]3(C)[C@H]2C1=O [Compound 9, (2S,4aR,6aR,7R,9S,10aS,10bR)-9-(propionyloxy)-2-(3-furanyl)dodecahydro-6a,10b-dimethyl-4,10-dioxo-2H-naphtho[2,1-c]pyran-7-carboxylic acid methyl ester]",behavioral effect,"rhesus monkeys [3]; nonhuman primates, pilot study, preliminary results",partial κ agonist
same,"generalization to U69,593","rhesus monkeys [3]; rhesus monkeys, up to highest dose, s.c.",one of two
same,Ki,κ receptors; read-out: Ki at κ receptors,1.8 nM
same,functional activity,opioid receptors,agonists
"COC(=O)[C@@H]1C[C@H](OC(=O)C(C)C)C(=O)[C@H]2[C@@]1(C)CC[C@H]1C(=O)O[C@H](c3ccoc3)C[C@]21C [Compound 10, (2S,4aR,6aR,7R,9S,10aS,10bR)-9-(isobutyryloxy)-2-(3-furanyl)-dodecahydro-6a,10b-dimethyl-4,10-dioxo-2H-naphtho[2,1-c]pyran-7-carboxylic acid methyl ester]",Ki,κ receptors,2980 nM
same,fold reduction of affinity at κ receptors compared to 9,κ receptors,approximately 10 fold
same,Ki,κ receptors; read-out: Ki at κ receptors,19 nM
"C=C(C)C(=O)O[C@H]1C[C@@H](C(=O)OC)[C@]2(C)CC[C@H]3C(=O)O[C@H](c4ccoc4)C[C@]3(C)[C@H]2C1=O [Compound 11, (2S,4aR,6aR,7R,9S,10aS,10bR)-9-(2-methylacryloyloxy)-2-(3-furanyl)-dodecahydro-6a,10b-dimethyl-4,10-dioxo-2H-naphtho[2,1-c]pyran-7-carboxylic acid methyl ester]",Ki,κ receptors,260 nM
same,"fold increase in affinity, printed 'at κ receptors', compared to 10",κ receptors,~11 fold
same,Ki,κ receptors; read-out: Ki at κ receptors,42 nM
"COC(=O)C(=O)O[C@H]1C[C@@H](C(=O)OC)[C@]2(C)CC[C@H]3C(=O)O[C@H](c4ccoc4)C[C@]3(C)[C@H]2C1=O [Compound 12, Oxalic acid methyl ester (2S,4aR,6aR,7R,9S,10aS,10bR)-7-carbomethoxy-2-(3-furanyl)dodecahydro-6a,10b-dimethyl-4,10-dioxo-2H-naphtho[2,1-c]pyran-9-yl ester]",fold loss of affinity at κ receptors compared to 11,κ receptors,10 fold
same,Ki,κ receptors; read-out: Ki at κ receptors,430 nM
"COC(=O)[C@@H]1C[C@H](OC(=O)c2ccccc2)C(=O)[C@H]2[C@@]1(C)CC[C@H]1C(=O)O[C@H](c3ccoc3)C[C@]21C [Compound 13, (2S,4aR,6aR,7R,9S,10aS,10bR)-9-(benzoyloxy)-2-(3-furanyl)-dodecahydro-6a,10b-dimethyl-4,10-dioxo-2H-naphtho[2,1-c]pyran-7-carboxylic acid methyl ester]",fold loss/decrease in affinity at κ receptors compared to 1,κ receptors,47 fold
same,Ki,κ receptors; read-out: Ki at κ receptors,90 nM
same,functional activity,opioid receptors,agonists
same,selectivity for μ opioid receptor,μ receptors,binds selectively to the μ opioid receptor
same,Ki,μ receptors,12 nM
"COC(=O)[C@@H]1C[C@H](OC(=O)c2cccnc2)C(=O)[C@H]2[C@@]1(C)CC[C@H]1C(=O)O[C@H](c3ccoc3)C[C@]21C [Compound 14, Nicotinic acid (2S,4aR,6aR,7R,9S,10aS,10bR)-7-carbomethoxy-2-(3-furanyl)dodecahydro-6a,10b-dimethyl-4,10-dioxo-2H-naphtho[2,1-c]pyran-9-yl ester]",Ki,κ receptors; read-out: Ki at κ receptors,1930 nM
same,Ki,μ receptors,73 nM
same,fold decrease in affinity at μ receptors compared to 13,μ receptors; ratio of Ki vs. 13,21 fold
"COC(=O)[C@@H]1C[C@H](OS(C)(=O)=O)C(=O)[C@H]2[C@@]1(C)CC[C@H]1C(=O)O[C@H](c3ccoc3)C[C@]21C [Compound 15, (2S,4aR,6aR,7R,9S,10aS,10bR)-9-(methanesulfonyloxy)-2-(3-furanyl)-dodecahydro-6a,10b-dimethyl-4,10-dioxo-2H-naphtho[2,1-c]pyran-7-carboxylic acid methyl ester]",Ki,κ receptors; read-out: Ki at κ receptors,2.3 nM
same,functional activity,opioid receptors,agonists
"COC(=O)[C@@H]1C[C@H](O[Si](C)(C)C)C(=O)[C@H]2[C@@]1(C)CC[C@H]1C(=O)O[C@H](c3ccoc3)C[C@]21C [Compound 16, (2S,4aR,6aR,7R,9S,10aS,10bR)-9-(trimethylsilanyloxy)-2-(3-furanyl)-dodecahydro-6a,10b-dimethyl-4,10-dioxo-2H-naphtho[2,1-c]pyran-7-carboxylic acid methyl ester]",fold loss/decrease in affinity at κ receptors compared to 1,κ receptors,847 fold
same,Ki,κ receptors; read-out: Ki at κ receptors,1610 nM
"COC(=O)[C@@H]1C[C@H](O)[C@H](O)[C@H]2[C@@]1(C)CC[C@H]1C(=O)O[C@H](c3ccoc3)C[C@]21C [Compound 18, (2S,4aR,6aR,7R,9S,10R,10aS,10bR)-9,10-(dihydroxy)-2-(3-furanyl)dodecahydro-6a,10b-dimethyl-4-oxo-2H-naphtho[2,1-c]pyran-7-carboxylic acid methyl ester]",affinity at δ receptors,δ receptors,low affinity
same,affinity at μ receptors,μ receptors,low affinity
"COC(=O)[C@@H]1C[C@H](O)[C@H](O)[C@@H]2[C@@]3(C)C[C@@H](c4ccoc4)OC(=O)[C@H]3CC[C@]21C [Compound 19, (2S,4aS,6aR,7R,9S,10R,10aS,10bR)-9,10-(dihydroxy)-2-(3-furanyl)dodecahydro-6a,10b-dimethyl-4-oxo-2H-naphtho[2,1-c]pyran-7-carboxylic acid methyl ester]",Ki,δ receptors,~10000 nM
same,Ki,κ receptors,~10000 nM
same,Ki,μ receptors,~10000 nM
"COC(=O)[C@@H]1C[C@H](OC(C)=O)[C@H](OC(C)=O)[C@H]2[C@@]1(C)CC[C@H]1C(=O)O[C@H](c3ccoc3)C[C@]21C [Compound 20, (2S,4aR,6aR,7R,9S,10R,10aS,10bR)-9,10-(diacetoxy)-2-(3-furanyl)dodecahydro-6a,10b-dimethyl-4-oxo-2H-naphtho[2,1-c]pyran-7-carboxylic acid methyl ester]",fold loss/decrease in affinity at κ receptors compared to 1,κ receptors,340 fold
same,Ki,κ receptors; read-out: Ki at κ receptors,650 nM
"COC(=O)[C@@H]1C[C@H](OC(=N)C(Cl)(Cl)Cl)C(=O)[C@H]2[C@@]1(C)CC[C@H]1C(=O)O[C@H](c3ccoc3)C[C@]21C [Compound 21, (2S,4aR,6aR,7R,9S,10aS,10bR)-9-(2,2,2-trichloroacetimidoyloxy)-2-(3-furanyl)-dodecahydro-6a,10b-dimethyl-4,10-dioxo-2H-naphtho[2,1-c]pyran-7-carboxylic acid methyl ester]",Ki,δ receptors; read-out: Ki at δ receptors,6470 nM
same,fold loss/decrease in affinity at κ receptors compared to 1,κ receptors,34 fold
same,Ki,κ receptors; read-out: Ki at κ receptors,64 nM
"COC(=O)[C@@H]1C[C@H](OC(=O)Nc2ccccc2)C(=O)[C@H]2[C@@]1(C)CC[C@H]1C(=O)O[C@H](c3ccoc3)C[C@]21C [Compound 22, (2S,4aR,6aR,7R,9S,10aS,10bR)-9-(phenylcarbamoyloxy)-2-(3-furanyl)-dodecahydro-6a,10b-dimethyl-4,10-dioxo-2H-naphtho[2,1-c]pyran-7-carboxylic acid methyl ester]",Ki,δ receptors; read-out: Ki at δ receptors,230 nM
same,fold loss/decrease in affinity at κ receptors compared to 1,κ receptors,49 fold
same,Ki,κ receptors; read-out: Ki at κ receptors,93 nM
same,Ki,μ receptors,16 nM
"C=CCNC(=O)O[C@H]1C[C@@H](C(=O)OC)[C@]2(C)CC[C@H]3C(=O)O[C@H](c4ccoc4)C[C@]3(C)[C@H]2C1=O [Compound 23, (2S,4aR,6aR,7R,9S,10aS,10bR)-9-(allylcarbamoyloxy)-2-(3-furanyl)-dodecahydro-6a,10b-dimethyl-4,10-dioxo-2H-naphtho[2,1-c]pyran-7-carboxylic acid methyl ester]",fold loss/decrease in affinity at κ receptors compared to 1,κ receptors,~300 fold
same,Ki,κ receptors; read-out: Ki at κ receptors,120 nM
